Reference: patent publication US10556865B2, “Synergistic herbicidal composition containing certain pyridine or pyrimidine carboxylic acids and certain cereal and rice herbicides” (Dow AgroSciences, LLC, priority 2007, dated 2020)

Key:
Format in all cases: in vivo
[1] = test system: black mustard (Brassica nigra L; BRSNI); assay: Postemergence herbicidal activity of mixtures in cereal crops (greenhouse, visual injury); details: Brassica, post-emergence, read-out: BRSNI Ob
Procedure: (§1) Seeds of the desired test plant species were planted in Sun Gro MetroMix® 306 planting mixture, which typically has a pH of 6.0 to 6.8 and an organic matter content of about 30 percent, in plastic pots with a surface area of 103.2 square centimeters (cm^2). When required to ensure good germination and healthy plants, a fungicide treatment and/or other chemical or physical treatment was applied. The plants were grown for 7-36 days in a greenhouse with an approximate 14 hour photoperiod which was maintained at about 18° C. during the day and 17° C. during the night. Nutrients and water were added on a regular basis and supplemental lighting was provided with overhead metal halide 1000-Watt lamps as necessary. The plants were employed for testing when they reached the second or third true leaf stage.
(§2) Treatments consisted of compound (as listed in Tables 1 through 64) and a second cereal herbicide alone and in combination. Weighed amounts of esters (methyl) or salts (TEA [triethylammonium], K [potassium]) of 4-amino-3-chloro -6-(4-chloro-2-fluoro-3-methoxyphenyl)pyridine-2-carboxylic acid (Compound A) or of 6-amino-5-chloro-2-(4-chloro-2-fluoro-3-methoxyphenyl)pyrimidine-4-carboxylic acid (Compound B), were placed in 25 milliliter (mL) glass vials and dissolved in a volume of 97:3 v/v acetone/DMSO to obtain 4.5 milligrams (mg) active ingredient (ai)/mL stock solutions. […] The concentrated stock solutions were diluted to 1.5 mg ai/mL with the addition of 2 volumes of an aqueous mixture containing acetone, water, isopropyl alcohol, DMSO, Agri-dex crop oil concentrate, and Triton® X-77 surfactant in a 64.7:26.0:6.7:2.0:0.7:0.01 v/v ratio. A dilution solution was prepared by mixing 1 volume of 97:3 v/v acetone/DMSO and 2 volumes of an aqueous mixture containing acetone, water, isopropyl alcohol, DMSO, Agri-dex crop oil concentrate, and Triton® X-77 surfactant in a 64.7:26.0:6.7:2.0:0.7:0.01 v/v ratio. Compound requirements are based upon a 12 mL application volume at a rate of 187 liters per hectare (L/ha). Spray solutions of the second cereal herbicide and experimental compound mixtures were prepared by adding the stock solutions to the appropriate amount of dilution solution to form 12 mL spray solution with active ingredients in two- and three-way combinations. Formulated compounds were applied to the plant material with an overhead Mandel track sprayer equipped with 8002E nozzles calibrated to deliver 187 L/ha over an application area of 0.503 square meters (m^2) at a spray height of 18 inches (43 cm) above average plant canopy. Control plants were sprayed in the same manner with the solvent blank.
(§3) The treated plants and control plants were placed in a greenhouse as described above and watered by sub-irrigation to prevent wash-off of the test compounds. After 20-22 days, the condition of the test plants as compared with that of the control plants was determined visually and scored on a scale of 0 to 100 percent where 0 corresponds to no injury and 100 corresponds to complete kill.
(§4) Colby's equation was used to determine the herbicidal effects expected from the mixtures (Colby, S. R. 1967. Calculation of the synergistic and antagonistic response of herbicide combinations. Weeds 15:20-22.).
(§5) The following equation was used to calculate the expected activity of mixtures containing two active ingredients, A and B: Expected=A+B−(A×B/100)

[2] = test system: wild buckwheat (Polygonum convolvulus L; POLCO); assay: as above
Procedure: as §1, §2, §3, §4, §5

[3] = test system: chickweed (Stellaria media L; STEME); assay: as above; details: for pest or weed control at 140 g/ha: 140 g/ha alone
Procedure: as §1, §2, §3, §4, §5

[4] = test system: scented mayweed (Matricaria chamomila L; MATCH); assay: as above
Procedure: (§6) The plants were grown for 7-36 days in a greenhouse with an approximate 14 hour photoperiod which was maintained at about 18° C. during the day and 17° C. during the night. Nutrients and water were added on a regular basis and supplemental lighting was provided with overhead metal halide 1000-Watt lamps as necessary. The plants were employed for testing when they reached the second or third true leaf stage.
(§7) Treatments consisted of compound (as listed in Tables 1 through 64) and a second cereal herbicide alone and in combination. […] Control plants were sprayed in the same manner with the solvent blank.
as §3, §5

[5] = test system: wild oats (Avena fatua L; AVEFA); assay: as above; details: 25 g/ha, Table 17
Procedure: as §1, with “When required to ensure good germination and healthy plants, a fungicide treatment and/or other chemical or physical treatment was applied.” left out
(§8) Treatments consisted of compound (as listed in Tables 1 through 64) and a second cereal herbicide alone and in combination. […] The concentrated stock solutions were diluted to 1.5 mg ai/mL with the addition of 2 volumes of an aqueous mixture containing acetone, water, isopropyl alcohol, DMSO, Agri-dex crop oil concentrate, and Triton® X-77 surfactant in a 64.7:26.0:6.7:2.0:0.7:0.01 v/v ratio. A dilution solution was prepared by mixing 1 volume of 97:3 v/v acetone/DMSO and 2 volumes of an aqueous mixture containing acetone, water, isopropyl alcohol, DMSO, Agri-dex crop oil concentrate, and Triton® X-77 surfactant in a 64.7:26.0:6.7:2.0:0.7:0.01 v/v ratio. Compound requirements are based upon a 12 mL application volume at a rate of 187 liters per hectare (L/ha). […] Formulated compounds were applied to the plant material with an overhead Mandel track sprayer equipped with 8002E nozzles calibrated to deliver 187 L/ha over an application area of 0.503 square meters (m^2) at a spray height of 18 inches […] above average plant canopy. Control plants were sprayed in the same manner with the solvent blank.
as §3, §4, §5

[6] = test system: windgrass (Apera spica-venti L; APESV); assay: as above; details: Apera spica-venti, post-emergence, read-out: APESV Ob
Procedure: as §1, with “When required to ensure good germination and healthy plants, a fungicide treatment and/or other chemical or physical treatment was applied.” left out
as §8, §3, §4, §5

[7] = test system: Italian ryegrass (Lolium multiflorum L; LOLMU); assay: as above; details: for LOLMU Ob: 25 g/ha
Procedure: as §1, §2, §3, §4, §5

[8] = test system: annual bluegrass (Poa annua L; POAAN); assay: as above; details: 25 g/ha
Procedure: as §1, §2, §3, §4, §5

[9] = test system: downy brome (Bromus tectorum L; BROTE); assay: as above
Procedure: as §1, §2, §3, §4, §5

[10] = test system: rigid ryegrass (Lolium rigidum L; LOLRI); assay: as above
Procedure: as §1, §2, §3, §4, §5

[11] = test system: bird's-eye speedwell (Veronica persica L; VERPE); assay: as above
Procedure: as §6, §7, §3, §5

[12] = test system: kochia (Kochia scoparia L; KCHSC); assay: as above; details: 450 g/ha alone
Procedure: as §1, §2, §3, §4, §5

[13] = test system: Leptochloa chinensis (L.) NEES (LEFCH); assay: Postemergence herbicidal mixtures for weed control in direct seeded rice (greenhouse, visual % injury); details: for % Injury Ob: LEFCH
[14] = test system: Canada thistle (Cirsium arvense L; CIRAR); assay: Postemergence herbicidal activity of mixtures in cereal crops (greenhouse, visual injury)
Procedure: as §6, §7, §3, §5

[15] = test system: wild pansy (Viola tricolor L; VIOTR); assay: as above
Procedure: as §6, §7, §3, §5

[16] = test system: annual ryegrass (Lolium multiflorum L; LOLMG); assay: as above; details: 125 g/ha, Table 13
Procedure: as §1, with “When required to ensure good germination and healthy plants, a fungicide treatment and/or other chemical or physical treatment was applied.” left out
as §8, §3, §4, §5

[17] = test system: littleseed Canarygrass (Phalaris minor L; PHAMI); assay: as above; details: 125 g/ha, Table 13
Procedure: as §1, with “When required to ensure good germination and healthy plants, a fungicide treatment and/or other chemical or physical treatment was applied.” left out
as §8, §3, §4, §5

[18] = test system: Ipomoea hederacea (L.) JACQ. (IPOHE); assay: Postemergence herbicidal mixtures for weed control in direct seeded rice (greenhouse, visual % injury after 3 weeks); details: IPOHE
Cyperus iria L. (CYPIR) = assay: Postemergence herbicidal mixtures for weed control in direct seeded rice (greenhouse, visual % injury); details: CYPIR
[19] = Stellaria media, post-emergence, read-out: STEME Ob

Compound: CC(C)N1C(=O)c2ccccc2NS1(=O)=O [Bentazone]
- pest or weed control at 120 g/ha ([1]; 120 g/ha): 50%
- POLCO Ob ([2]; 120 g/ha): 0%

Compound: N#Cc1cc(Br)c(O)c(Br)c1 [Bromoxynil]
- pest or weed control at 70 g/ha ([1]; 70 g/ha): 50%
- pest or weed control at 70 g/ha ([3]; Stellaria media, post-emergence, 70 g/ha, read-out: STEME Ob): 0%
- pest or weed control at 70 g/ha ([4]; Matricaria, post-emergence, 70 g/ha, read-out: MATCH Ob): 0%

Compound: CCCOc1nn(C(=O)NS(=O)(=O)c2ccccc2C(=O)OC)c(=O)n1C [Propoxycarbazone-Na, methyl 2-[[[(4,5-dihydro-4-methyl-5-oxo-3-propoxy-1H-1,2,4-triazol-1-yl)carbonyl]amino]sulfonyl]benzoate, reference compound]
- AVEFA Ob [5]: 76%
- pest or weed control at 25 g/ha ([6]; 25 g/ha, Table 17): 90%
- LOLMU Ob ([7]; Table 10): 17%
- LOLMU Ob ([7]; Table 17): 15%
- POAAN Ob ([8]; Table 10): 7%
- POAAN Ob ([8]; Table 17): 5%
- BROTE Ob ([9]; 25 g/ha, Table 10): 92%
- LOLRI Ob ([10]; 25 g/ha, Table 17): 10%
- pest or weed control at 15 g/ha ([11]; Veronica persica, post-emergence, 15 g/ha, read-out: VERPE Ob): 5%
- pest or weed control at 15 g/ha ([4]; Matricaria, post-emergence, 15 g/ha, read-out: MATCH Ob): 50%

Compound: Cc1ccc(NC(=O)N(C)C)cc1Cl [Chlorotoluron]
- pest or weed control at 450 g/ha ([1]; 450 g/ha alone): 50%
- KCHSC Ob [12]: 50%

Compound: COC(=O)c1c(Cl)nn(C)c1S(=O)(=O)NC(=O)Nc1nc(OC)cc(OC)n1 [Halosulfuron-methyl]
- % Injury LEFCH Ob ([13]; alone 26 g/ha): 0%
- % Injury LEFCH Ob ([13]; alone 52 g/ha): 0%

Compound: COc1nc(C)nc(=NC(=O)NS(=O)(=O)c2ccccc2C(=O)O)[nH]1 [Metsulfuron]
- CIRAR Ob ([14]; 3.75 g/ha): 20%

Compound: COc1nc(C)nc(N(C)C(=O)NS(=O)(=O)c2ccccc2C(=O)O)n1 [Tribenuron]
- CIRAR Ob ([14]; 3.75 g/ha): 20%

Compound: COc1cc(OC)nc(NC(=O)NS(=O)(=O)N(C)S(C)(=O)=O)n1 [Amidosulfuron]
- CIRAR Ob ([14]; 10 g/ha): 20%
- pest or weed control at 10 g/ha ([11]; Veronica persica, post-emergence, 10 g/ha, read-out: VERPE Ob): 5%
- pest or weed control at 10 g/ha ([15]; Viola tricolor, post-emergence, 10 g/ha, read-out: VIOTR Ob): 5%

Compound: COc1ncc(F)c2nc(S(=O)(=O)Nc3c(F)cccc3F)nn12 [Florasulam]
- CIRAR Ob ([14]; 1.25 g/ha): 20%
- VERPE Ob ([11]; 1.25 g/ha): 5%
- VERPE Ob ([11]; 1.3 g/ha alone): 28%
- MATCH Ob ([4]; 1.3 g/ha alone): 83%
- VIOTR Ob ([15]; 1.25 g/ha): 10%
- VIOTR Ob ([15]; 1.3 g/ha alone): 53%

Compound: COc1cc(OC)nc(NC(=O)NS(=O)(=O)c2cc(CNS(C)(=O)=O)ccc2C(=O)O)n1 [Mesosulfuron, 2-[[[[(4,6-dimethoxy-2-pyrimidinyl)amino]carbonyl]amino]sulfonyl]-4-[[(methylsulfonyl)amino]-methyl]benzoic acid, reference compound]
- pest or weed control at 3.75 g/ha ([6]; 3.75 g/ha, Table 15): 93%
- pest or weed control at 3.75 g/ha ([3]; Stellaria media, post-emergence, 3.75 g/ha, read-out: STEME Ob): 0%
- BROTE Ob ([9]; 3.75 g/ha, Table 15): 75%
- BROTE Ob ([9]; 3.8 g/ha, Table 8): 73%
- CIRAR Ob ([14]; 3.75 g/ha): 20%
- pest or weed control at 3.75 g/ha ([4]; Matricaria, post-emergence, 3.75 g/ha, read-out: MATCH Ob): 5%

Compound: O=C(O)CCCc1c[nH]c2ccccc12 [Indol-3-butyric acid]
- pest or weed control at 140 g/ha ([1]; 140 g/ha alone): 0%
- pest or weed control at 140 g/ha [3, 19]: 0%

Compound: 2-[4,5-dihydro-4-methyl-4-(1-methylethyl)-5-oxo-1H-imidazol-2-yl]-4(or 5)-methylbenzoic acid [Imazamethabenz, reference compound]
- LOLMG Ob [16]: 0%
- PHAMI [17]: 0%
- LOLMU ([7]; 125 g/ha, Table 13): 0%
- STEME Ob ([3]; 125 g/ha): 10%
- LOLRI ([10]; 125 g/ha, Table 13): 0%
- MATCH Ob ([4]; 125 g/ha): 0%

Compound: C/C(=N\NC(=O)Nc1cc(F)cc(F)c1)c1ncccc1C(=O)O [Diflufenzopyr]
- % Injury Ob ([18]; 4.38 g/ha alone): 10%
- % Injury Ob ([18]; 8.75 g/ha alone): 40%
- % Injury Ob ([18]; 17.5 g/ha alone): 60%
- % Injury Ob ([18]; 35 g/ha alone): 65%
- % Injury Ob ([13]; 8.75 g/ha alone): 0%
- % Injury Ob (Cyperus iria L. (CYPIR); 4.38 g/ha alone): 10%
- % Injury Ob (Cyperus iria L. (CYPIR); 8.75 g/ha alone): 15%
- % Injury Ob (Cyperus iria L. (CYPIR); 17.5 g/ha alone): 20%
- % Injury Ob (Cyperus iria L. (CYPIR); 35 g/ha alone): 30%

Compound: COc1nc(C)nc(NC(=O)NS(=O)(=O)c2ccsc2C(=O)O)n1 [Thifensulfuron]
- CIRAR Ob ([14]; 3.75 g/ha): 20%

Compound: CC1(C)CON(Cc2ccccc2Cl)C1=O [Clomazone]
- % Injury Ob ([13]; 560 g/ha alone): 40%
- % Injury Ob (Cyperus iria L. (CYPIR); 560 g/ha alone): 0%
- % Injury Ob (Cyperus iria L. (CYPIR); 1120 g/ha alone): 0%

Compound: O=C(O)Cc1c[nH]c2ccccc12 [Indol-3-acetic acid]
- pest or weed control at 140 g/ha [3, 19]: 0%
- POLCO Ob ([2]; 140 g/ha alone): 0%
- pest or weed control at 140 g/ha ([4]; Matricaria, post-emergence, 140 g/ha alone, read-out: MATCH Ob): 0%
